According to patent US12466849B2, “Anti-viral and anti-tumoral compounds” (YEDA RESEARCH AND DEVELOPMENT CO. LTD, priority 2020, dated 2025):
In brackets after ≈: the same amount, converted by molar mass. Where two headings read alike, the source gives them in different places.

Experiments:
enterovirus-68 (EV-68) [1] = tested on: enterovirus-68 (EV-68)
[2] = tested on: Japanese encephalitis virus (JEV)
HCMV AD169 = assay: HCMV plaque reduction assay, MRC-5 cells, strain AD169; assay type: cell-based, Human cytomegalovirus; conditions: for EC50: plaque assay, 6-days duration
[3] = tested on: Venezuelan equine encephalitis virus (VEEV)
[4] = tested on: Rift Valley fever virus (RVFV)
in vitro [5] = conditions: both, human, plasma
in vitro [6] = conditions: African green monkey
JC virus (JCV) [7] = tested on: JC virus (JCV)
HFF cells = assay: Cell proliferation assay, human foreskin fibroblast (HFF) cells; assay type: cell-based; conditions: Homo sapiens, 72 h, cell number
[8] = Secondary JCV assay (qPCR), COS7 cells; conditions: African green monkey
JC virus (JCV) [9] = assay: Secondary JCV assay (qPCR), COS7 cells
[10] = human
[11] = tested on: BK virus (BKV), Gardner strain; assay: microbe, parasite or virus in culture; conditions: Betapolyomavirus hominis, HFF
in vitro [12] = conditions: human
JC virus (JCV) [13] = assay: microbe, parasite or virus in culture; conditions: JC polyomavirus, COS-7
in vitro [14] = conditions: male, SD, rat, plasma
in vitro [15] = conditions: rat
[16] = MRC-5 cytotoxicity assay (MTS) and visual cytotoxicity; conditions: human
in vitro [17] = conditions: human; remark: listed apart in the source
[18] = tested on: BK virus (BKV), Gardner strain
[19] = rat; for Peak area ratio, parent: 1 µM
in vitro [20] = conditions: human; remark: listed apart in the source
[21] = Liver (hepatic) S9 stability, human
[22] = Liver (hepatic) S9 stability, rat
enterovirus-68 (EV-68) [23] = assay: organism not typed; conditions: RD, read-out: EQ50
[24] = molecular target: T1, SARS-Cov2 RdRp (nsp12-nsp7-nsp8) (Severe acute respiratory syndrome coronavirus 2, UniProt P0DTD1); assay type: biochemical; conditions: primer extension; analog at 100 uM, printed 100 mM
[25] = molecular target: T1, SARS-Cov2 RdRp (nsp12-nsp7-nsp8); assay type: biochemical; conditions: after addition of GTP and CTP (third and fourth nucleotides)
[26] = Vero 76 cells without virus, test compounds

O=c1ccn([C@@H]2OC(CO)=C[C@H]2O)c(=O)[nH]1 [AB21649]
CC50 (MRC-5 cells): > 100 µM
CC50 (enterovirus-68 (EV-68) [1]): 390 µM
EC50 (enterovirus-68 (EV-68) [1]; 33°C): > 390 µM
SI (enterovirus-68 (EV-68) [1]; EV-68, SI = CC50/EC50): 0
CC50 (Yellow fever virus (YFV); Huh7 cells without virus, test compounds): > 2000 µM
EC50 (Yellow fever virus (YFV); YFV, Huh7 cells, test compounds): > 2000 µM
SI (Yellow fever virus (YFV); YFV, SI = CC50/EC50): 0
CC50 (dengue virus-2 (DV-2)): > 2000 µM
EC50 (dengue virus-2 (DV-2)): > 2000 µM
SI (dengue virus-2 (DV-2); DV-2, SI = CC50/EC50): 0
CC50 [2]: 1700 µM
EC50 [2]: > 1700 µM
SI ([2]; JEV, SI = CC50/EC50): 0
EC50 (HCMV AD169; hCMV AD169, MRC5 cells): > 100 µM
SI ([3]; VEEV, SI = CC50/EC50): 0
EC50 ([3]; VEEV, Vero 76 cells, test compounds): > 1100 µM
CC50 [3, 26]: 1100 µM
CC50 (SARS-CoV-2): > 2000 µM
EC50 (SARS-CoV-2): > 2000 µM
SI (SARS-CoV-2; SARS-CoV-2, SI = CC50/EC50): 0
SI (poliovirus-1 (POV-1); POV-1, SI = CC50/EC50): 0
EC50 (poliovirus-1 (POV-1); POV-1, Vero 76 cells, test compounds): > 1000 µM
CC50 (poliovirus-1 (POV-1); [26]): 1000 µM
CC50 (RSV): 1900 µM
EC50 (RSV): > 1900 µM
SI (RSV; RSV, SI = CC50/EC50): 0
CC50 (Powassan virus (POWV); BHK-21 cells without virus, test compounds): > 2000 µM
EC50 (Powassan virus (POWV); POWV, BHK-21 cells, test compounds): > 2000 µM
SI (Powassan virus (POWV); POWV, SI = CC50/EC50): 0
SI ([4]; RVFV, SI = CC50/EC50): 0
EC50 ([4]; RVFV, Vero 76 cells, test compounds): > 1100 µM
CC50 [4, 26]: 1100 µM
CC50 (influenza A(H5N1); MDCK cells without virus, test compounds): 1300 µM
antiviral activity against Influenza (H5N1) (in words) (influenza A(H5N1); Table 11): exhibits antiviral activity
EC50 (influenza A(H5N1); influenza A(H5N1), MDCK cells, test compounds): 800 µM
SI (influenza A(H5N1); influenza A(H5N1), SI = CC50/EC50): 1.6
CC50 (Influenza B): 1300 µM
EC50 (Influenza B): 310 µM
antiviral activity against Influenza B (in words) (Influenza B): exhibits antiviral activity
SI (Influenza B; Influenza B, SI = CC50/EC50): 4.2
CC50 (West Nile virus (WNV)): 1400 µM
EC50 (West Nile virus (WNV)): > 1400 µM
SI (West Nile virus (WNV); WNV, SI = CC50/EC50): 0
CC50 (influenza A(H1N1)): 1400 µM
EC50 (influenza A(H1N1)): 560 µM
antiviral activity against Influenza (H1N1) (in words) (influenza A(H1N1)): exhibits antiviral activity
SI (influenza A(H1N1); influenza A(H1N1), SI = CC50/EC50): 2.5
CC50 (TCRV): 1200 µM
EC50 (TCRV): > 1200 µM
SI (TCRV): 0
CC50 (Zika virus): 1500 µM
EC50 (Zika virus): > 1500 µM
SI (Zika virus; Zika, SI = CC50/EC50): 0
SI (SARS-CoV; SARS-CoV, SI = CC50/EC50): 0
EC50 (SARS-CoV; SARS-CoV, Vero 76 cells, test compounds): > 1500 µM
CC50 (SARS-CoV; [26]): 1500 µM
CC50 (adenovirus-5 (Ad5)): > 2000 µM
EC50 (adenovirus-5 (Ad5)): > 2000 µM
SI (adenovirus-5 (Ad5); Ad5, SI = CC50/EC50): 0

CCCCCCCCCCCCCCCCOCCCOP(=O)(O)OCC1=CC(O)C(n2ccc(=O)[nH]c2=O)O1 (stereo not shown) [AB23039]
half-life at 0.75 µM (in vitro [5]): > 9.32 h
half-life at 0.75 μM (in vitro [5]): > 9.3 h
CC50 (in vitro [6]): 71.8 µM
EC50 (HCMV AD169; Human betaherpesvirus 5, 144 h, hCMV AD169, MRC5 cells): 18.1 µM
antiviral activity against hCMV (in words) (HCMV AD169; MRC5 cells, AD169 strain): impressive antiviral activity
Selectivity Index (CC50/EC50) (HCMV AD169; hCMV AD169, MRC5 cells): 2.33
Activity (JC virus (JCV) [7]): HI (key: NA (Not Active) SI50 = 0-3.9; LO (Slightly Active) SI50 = 4-9.9; MOD (Moderately Active) SI50 = 10-19.9; HI (Highly Active) SI50 = ≥20)
activity against JC virus (in words) (JC virus (JCV) [7]): high activity
IC50 (HFF cells): > 100 µM
CC50 at 7 days [8]: 46.8 µM
EC50 (JC virus (JCV) [9]; JC polyomavirus, COS-7, 168 h): 3.07 µM
EC90 (JC virus (JCV) [9]; JC polyomavirus, COS-7, 168 h): 9.44 µM
Activity (JC virus (JCV) [9]; secondary JCV assay, COS7 cells, class by SI50): MOD (MOD (Moderately Active) SI50 = 10-19.9)
antiviral activity against JCV (in words) (JC virus (JCV) [9]; secondary testing, COS7 cells): moderate
CLhep ([10]; 1 μM): 0.546 L/h/kg
Eh ([10]; 1 μM): 44%
Peak area ratio, parent ([10]; 15 min, 1 μM): 3.41E−01
Peak area ratio, parent ([10]; 60 min, 1 μM): 3.09E−01
hydrolytic stability in hepatic S9 (in words) ([10]; s9): most stable
T1/2 ([10]; s9, 1 μM): 4.42 h
EC50 [11]: 0.86 µM
EC90 [11]: 7.76 µM
microsomal CLint at 1 μM (in vitro [12]; s9): 5.2 µL/min/mg
half-life at 1 μM (in vitro [12]; s9, T1/2): 4.41 h
EC50 (JC virus (JCV) [13]): 0.21 µM
EC90 (JC virus (JCV) [13]): 23.4 µM
half-life at 0.75 µM (in vitro [14]): > 9.32 h
half-life at 0.75 μM (in vitro [14]): > 9.3 h
microsomal CLint at 1 μM (in vitro [15]; s9): 4 µL/min/mg
half-life at 1 μM (in vitro [15]; s9, T1/2): 5.79 h
CC50 at 6 days [16]: 42.2 µM
CC50 at 7 d (in vitro [17]): > 150 µM
Activity [18]: HI (key: NA (Not Active) SI50 = 0-3.9; LO (Slightly Active) SI50 = 4-9.9; MOD (Moderately Active) SI50 = 10-19.9; HI (Highly Active) SI50 = ≥20)
activity against BK virus (in words) [18]: high activity
CLhep ([19]; 1 μM): 0.858 L/h/kg
Eh ([19]; 1 μM): 26%
Peak area ratio, parent ([19]; 15 min): 3.61E−01
Peak area ratio, parent ([19]; 60 min): 3.25E−01
hydrolytic stability in hepatic S9 (in words) ([19]; s9): most stable
T1/2 ([19]; s9, 1 μM): 5.78 h
CC50 (in vitro [20]): 90.9 µM

COc1ccc2c(c1)[C@]13CCCC[C@@H]1[C@H](C2)N(C)CC3 [Dextromethorphan]
T1/2 ([21]; human liver S9, 0.5 mg/mL, NADPH incubation (Table 24 gives without NADPH)): 1.57 h
microsomal CLint at 1 μM ([21]; human, s9): 14.7 µL/min/mg
CLhep ([21]; human, predicted from S9 CLint (well-stirred model)): 0.858 L/h/kg
CLhep ([22]; predicted from S9 CLint (well-stirred model)): 2.23 L/h/kg
half-life at 1 μM ([22]; s9): 0.98 h
microsomal CLint at 1 μM ([22]; s9): 23.6 µL/min/mg

CCOC(=O)c1ccc(OCCC2CCN(c3ccc(C)nn3)CC2)cc1 [Pirodavir]
CC50 (enterovirus-68 (EV-68) [1]; human): 4.3 mg/L
EC50 (enterovirus-68 (EV-68) [23]): 0.039 mg/L (≈ 0.106 µM)

Nc1nc2c(ncn2[C@@H]2OC(COP(=O)(O)OP(=O)(O)OP(=O)(O)O)=C[C@H]2O)c(=O)[nH]1 [ddhGTP, 3′-deoxy-3′,4′-didehydro-guanosine-triphosphate]
incorporation into RNA by SARS-Cov2 RdRp (in words) [24]: incorporates onto RNA as GTP analog
chain termination of RNA synthesis (in words) [25]: caused chain termination of RNA synthesis

N#C[C@@]1(c2ccc3c(N)ncnn23)OC(COP(=O)(O)OP(=O)(O)OP(=O)(O)O)=C[C@H]1O [ddhREM-TP, ddhRemdesivir]
incorporation into RNA by SARS-Cov2 RdRp (in words) [24]: incorporated into RNA as ATP analogs
chain termination of RNA synthesis (in words) [25]: caused termination of RNA synthesis
